# Patent publication US8765433B2, “Alcohol dehydrogenases (ADH) useful for fermentive production of lower alkyl alcohols” (priority 2009, dated 2014)
# System: Achromobacter xylosoxidans SadB (SadB), SEQ ID NO: 26
# Test: isobutyraldehyde reduction kinetics (A340, initial rates)
# Type: biochemical
# Details: read-out: KM (NADH); cofactor
# Description: This example describes preparation of ADH-gene constructs for over-expression/purification and measurement of enzyme activities using a time-course assay. Horse-liver ADH (HLADH; A-6128) was purchased from Sigma. Achromobacter xylosoxidans SadB (SadB), Saccharomyces cerevisiae ADH6 (ScADH6) and ADH7 (ScADH7), Entamoeba histolytica ADH1 (EhADH1), Bos Taurus Aldehyde Reductase (BtARD), Beijerinckia indica subsp. Indica ATCC 9039 (BiADH), Clostridium beijerinckii ADH (CbADH), Rana perezi ADH8 (RpADH8), Rattus norvegicus ADH1 (RnADH1), Thermus sp. ATN1 ADH (TADH), Phenylobacterium zucineum HLK1 ADH (PzADH), Methylocella silvestris BL2 ADH (MsADH), Acinetobacter baumannii AYE ADH (AbADH), Geobacillus sp. WCH70 ADH (GbADH), Vanderwaltozyma polyspora DSM 70294 ADH (VpADH), Mucor circinelloides ADH (McADH), and Rhodococcus erythropolis PR4ADH (ReADH) were the candidates for which subclones were prepared for protein expression and purification.
# As a routine practice, the crude extracts and purified proteins were assayed for butanol oxidation activity, in order to ensure that the recombinant proteins were active throughout the purification process. […] Alcohol oxidation activities were carried out in 50 mM sodium phosphate buffer at pH 8.8 and aldehyde reduction reactions were assayed in 190 mM potassium phosphate buffer at pH 7.0. Depending on the nature of reaction being carried out, the enzyme and cofactor stocks were diluted in the reaction buffers at the respective pHs. Either buffer or cell extract prepared from the proprietary E. coli strain (with no ADH plasmid) was used as the negative control for assays with purified protein and cell-free extracts, respectively.
# Kinetic constants of the ADH enzymes were calculated and compared to identify those candidate ADH enzymes with the most desirable properties for the conversion of isobutyraldehyde to isobutanol in the last step of the engineered pathway for isobutanol production. The assays for determining the kinetic constants were carried out using initial rates from the assays described above. […] The concentration of a given enzyme was such that it was conducive for the measurement of initial velocities over a 1-min time course. For each enzyme, Michaelis-Menten plots were generated with a broad range of substrate concentrations. Rough estimates of KM were obtained, based on which the assays were redesigned so as to use substrate concentrations in the range 0.5 to 10 times the KM value, to be able to obtain the appropriate kinetic constants. […] Reactions with isobutanol substrate were performed at 30° C. in 50 mM Sodium phosphate buffer, pH 8.8, containing 7.5 mM NAD. The Enzyme kinetics module (Version 1.3) of SigmaPlot 11 (Systat Software, Inc.) was used to fit data to Michaelis-Menten equations and calculate the kinetic constants. The kcat/KM is derived from the individual numbers of kcat and KM and not an experimentally determined value.
# For those enzymes marked with an asterisk in Table 7, at least 3 assays were performed with separate preparations of the enzyme. All other numbers are values from either one assay or are averages from 2 assays performed with the same enzyme sample.
smiles,measurement,value
"NC(=O)C1=CN([C@@H]2O[C@H](COP(=O)(O)OP(=O)(O)OC[C@H]3O[C@@H](n4cnc5c(N)ncnc54)[C@H](O)[C@@H]3O)[C@@H](O)[C@H]2O)C=CC1 [NADH, reduced nicotinamide adenine dinucleotide]",Km,20 µM
